Like-named read-outs stand apart in the source and are kept apart here.
What was measured:
HepG2 cells = experiment: F1P Cell-Based Assay (EC50), 13C6-fructose-1-phosphate in HepG2 cells (cell culture medium or 50% human plasma)
human KHK-C = human KHK-C (Homo sapiens (Human), UniProt P50053); experiment: KHK Biochemical Assay (IC50), ADP-Glo, KHK-C; settings: average of at least two separate assays
Summary of the method: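 Luminescent ADP-Glo read-out of ADP made by His-tagged KHK (BL21 (DE3) expression, Ni-NTA). Enzyme and compound sat together 30 min before ATP/fructose addition, then reacted 4 h at RT in Hepes pH 7.4 buffer with KCl, MgCl2, Triton-X. Quench 1 h, detection 1 h.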

[1] = Homo sapiens, HepG2, HepG2 cells, 50% human plasma, read-out: F1P 50% HP EC50
[2] = Homo sapiens, HepG2, read-out: F1P 10% FBS EC50, HepG2 cells, cell culture medium (10% FBS)

human KHK-C, sequence (P50053 whole entry): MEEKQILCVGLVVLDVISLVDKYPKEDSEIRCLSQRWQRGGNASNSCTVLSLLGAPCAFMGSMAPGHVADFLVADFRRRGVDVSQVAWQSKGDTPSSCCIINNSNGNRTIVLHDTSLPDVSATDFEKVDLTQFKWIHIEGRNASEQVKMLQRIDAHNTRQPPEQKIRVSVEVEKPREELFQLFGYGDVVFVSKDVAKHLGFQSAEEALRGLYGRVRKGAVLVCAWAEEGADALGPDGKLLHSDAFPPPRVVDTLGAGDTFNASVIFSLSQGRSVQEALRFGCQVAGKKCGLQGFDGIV

| SMILES | EC50 (HepG2 cells; [1]) | EC50 (HepG2 cells; [2]) | IC50 (human KHK-C) | EC50 (HepG2 cells; HepG2 cells, 50% human plasma, read-out: F1P 50% HP EC50) | EC50 (HepG2 cells; read-out: F1P 10% FBS EC50, HepG2 cells, cell culture medium (10% FBS)) | EC50 (HepG2 cells; Homo sapiens, HepG2, read-out: F1P 10% FBS EC50) | EC50 (HepG2 cells; Homo sapiens, HepG2, read-out: F1P 50% HP EC50) |
| --- | --- | --- | --- | --- | --- | --- | --- |
| C[C@H]1[C@H](O)CN1c1nc(-c2cc(F)cc(S(C)(=N)=O)c2)c2c(n1)C(F)(F)CC2 (some centres unmarked) [Example 724] |  |  | 25.4 nM |  |  | 166 nM | 234 nM |
| C[C@H]1CCN1c1nc2c(c(-c3ccc4c(c3)S(=N)(=O)CCO4)n1)CCC2 (some centres unmarked) [Example 726] | 306 nM | 62.1 nM | 16.7 nM |  |  |  |  |
| C[C@H]1CCN1c1nc(-c2cc3c(c(CNS(C)(=O)=O)c2)OCC3)c2c(n1)C(F)(F)CC2 [Example 762, N-[[5-[7,7-difluoro-2-[(2S)-2-methylazetidin-1-yl]-5,6-dihydrocyclopenta[d]pyrimidin-4-yl]-2,3-dihydrobenzofuran-7-yl]methyl]methanesulfonamide] | 159 nM | 11.4 nM | 2 nM |  |  |  |  |
| CCOc1ccc(-c2nc(N3C[C@@H](O)[C@@H]3C)nc3c2CCC3(F)F)cc1S(N)(=O)=O [Example 764, 5-[7,7-difluoro-2-[(2S,3R)-3-hydroxy-2-methyl-azetidin-1-yl]-5,6-dihydrocyclopenta[d]pyrimidin-4-yl]-2-ethoxy-benzenesulfonamide] | 22.1 nM | 8.9 nM | 5.5 nM |  |  |  |  |
| C[C@H]1CCN1c1nc(-c2ccc3c(c2)CNC3)c2c(n1)C(F)(F)CC2 [Example 765, 7,7-difluoro-4-isoindolin-5-yl-2-[(2S)-2-methylazetidin-1-yl]-5,6-dihydrocyclopenta[d]pyrimidine] | 53.2 nM | 15.5 nM | 7.7 nM |  |  |  |  |
| CC(=O)NCc1cc(-c2nc(N3C[C@@H](O)[C@@H]3C)nc3c2CCC3(F)F)cc2c1OCC2 [Example 766, N-[[5-[7,7-difluoro-2-[(2S,3R)-3-hydroxy-2-methyl-azetidin-1-yl]-5,6-dihydrocyclopenta[d]pyrimidin-4-yl]-2,3-dihydrobenzofuran-7-yl]methyl]acetamide] |  |  | 11.8 nM | 150 nM | 38.4 nM |  |  |
| CC(=O)NC1COc2cc(-c3nc(N4CC[C@@H]4C)nc4c3CCC4(F)F)ccc21 (stereo partly drawn) [Example 767, N-[6-[7,7-difluoro-2-[(2S)-2-methylazetidin-1-yl]-5,6-dihydrocyclopenta[d]pyrimidin-4-yl]-2,3-dihydrobenzofuran-3-yl]acetamide] | 97.9 nM | 20.9 nM | 4.8 nM |  |  |  |  |
| C[C@H]1CCN1c1nc(-c2ccc(C(N)CS(C)(=O)=O)cc2)c2c(n1)C(F)(F)CC2 (stereo partly drawn) [Example 774, 1-(4-(7,7-difluoro-2-((S)-2-methylazetidin-1-yl)-6,7-dihydro-5H-cyclopenta[d]pyrimidin-4-yl)phenyl)-2-(methylsulfonyl)ethan-1-amine] |  | 11.8 nM | 2.1 nM |  |  |  |  |

More lines, main results first:

| EC50 (HepG2 cells; [1]) | EC50 (HepG2 cells; [2]) | IC50 (human KHK-C) | EC50 (HepG2 cells; HepG2 cells, 50% human plasma, read-out: F1P 50% HP EC50) | EC50 (HepG2 cells; read-out: F1P 10% FBS EC50, HepG2 cells, cell culture medium (10% FBS)) | SMILES | EC50 (HepG2 cells; Homo sapiens, HepG2, read-out: F1P 10% FBS EC50) | EC50 (HepG2 cells; Homo sapiens, HepG2, read-out: F1P 50% HP EC50) |
| --- | --- | --- | --- | --- | --- | --- | --- |
| 42.6 nM | 12.9 nM | 7.2 nM |  |  | C[C@H]1[C@H](F)CN1c1nc(-c2cccc(S(C)(=N)=O)c2)c2c(n1)C(F)(F)CC2 (stereo partly drawn) [Example 710, (3-(7,7-difluoro-2-((2S,3R)-3-fluoro-2-methylazetidin-1-yl)-6,7-dihydro-5H-cyclopenta[d]pyrimidin-4-yl)phenyl)(imino)(methyl)-λ^6-sulfanone] |  |  |
| 41.3 nM | 44.3 nM | 19 nM |  |  | C[C@H]1[C@H](O)CN1c1nc(-c2ccc(F)c(S(C)(=N)=O)c2)c2c(n1)C(F)(F)CC2 (stereo partly drawn) [Example 723, (5-(7,7-difluoro-2-((2S,3R)-3-hydroxy-2-methylazetidin-1-yl)-6,7-dihydro-5H-cyclopenta[d]pyrimidin-4-yl)-2-fluorophenyl)(imino)(methyl)-λ^6-sulfanone] |  |  |
| 156 nM | 44.3 nM | 5.7 nM |  |  | CNC1(c2ccc(-c3nc(N4C[C@@H](F)[C@@H]4C)nc4c3CCC4(F)F)cc2)CS(=O)(=O)C1 [Example 770, 3-(4-(7,7-difluoro-2-((2S,3R)-3-fluoro-2-methylazetidin-1-yl)-6,7-dihydro-5H-cyclopenta[d]pyrimidin-4-yl)phenyl)-3-(methylamino)thietane 1,1-dioxide] |  |  |
| 33.8 nM | 10.5 nM | 1 nM |  |  | C[C@H]1[C@H](F)CN1c1nc(-c2ccc(C3(N)CS(=O)(=O)C3)cc2)c2c(n1)C(F)(F)CC2 [Example 772] |  |  |

— US12410160B2 (Gilead Sciences, Inc., priority 2021, dated 2025)
